Here are results for two molecules from patent US20080039434A1, “Treatment of Interstitial Cystitis with Vitamin D Compounds” (BioXell S. p.A., priority 2004, published 2008).

In one assay the test system is FcεR1α. Description: Taq-Man analysis of bladder mRNA, allergic IC in mice: FcεR1α. Format: in vivo, mouse. The settings on record: ovalbumin challenged. As for the experimental part:
Mice (BALB/c, females 8 weeks old, weight 18-20 g, Charles River, Calco ITA) were sensitized by injecting 10 ug/mouse of chicken ovalbumin from Sigma (OVA, grade V) in the presence of 4 mg of alum (SERVA, Germany) by intraperitoneal injection, once a week for 4 weeks. This induces a sustained level of IgE detectable in serum.
One or two weeks after the last immunization boost, sensitized mice were anesthetized (1.5% Isoflurane) and then trans-urethrally catheterized (24 gauge, ¾ in.; Angiocath, Becton-Dickson). Slight digital pressure was applied the lower abdomen to drain the urine.
The urinary bladders were instilled with either 150 ul of either saline or OVA alone, (1 mg/150 ul) infused at a slow rate to avoid trauma and vesico-ureteral reflux and repeated twice within a 30-min interval with the syringe kept in place on the catheter for at least 30 min. Intravesical challenge was repeated 7-10 days after the first one with the same procedure.
An ethanol stock solution of Compound B (1 mg/ml) was dissolved in Miglyol vehicle at the appropriate concentration. Control animals received the vehicle containing the same amount of ethanol. Drug (or vehicle) treatment was carried out by daily gavage after weighing the animal. Drug solution was prepared calculating a final volume of 100 ul/10 grams body weight, and treatment was started on the day of the first intravesical ovalbumin challenge, maintained daily, but discontinued over the weekends, for 12 days total treatment. FIG. 7 illustrates the timeline of the experiment.
Total RNA was extracted from one half of bladder by using RNeasy Mini kit (Qiagen), treated with DNase 1 (Qiagen) and reverse transcription performed with Reverse Transcription Reagent (Applied Biosystems) with Random Hexamers (according to the manufacturer's instructions). cDNA was synthesized from 1 ug of RNA. Real-Time PCR was performed in 96-well optical reaction plates (Applied Biosystems). For each sample we amplified both the target gene and the housekeeping gene (HPRT) in different wells (singleplex) and in duplicate. The amplification Master Mix was prepared according to the following protocol (volumes refer to a single well with a final volume of 40 ul/well)): 2× TaqMan® R Universal PCR Master Mix (Applied Biosystems, 4304437): 20 ul; 20× Assay target gene: 2 ul; H2O: 8 ul; cDNA: 10 ul. Reaction was run on an SDS 7000 (Applied Biosystems) instruments, with the following amplification program: 2′ at 50° C.; 10′ at 95° C.; 15″ at 95° C. and 1′ at 60° C. for 40 cycles; Cycle threshold (Ct) values were exported into Excel Worksheets for analysis and relative quantitations were performed using the ΔCt method. All primers used carried the FAM reporter.
Experiments in Example 7 were performed according to the general procedures described previously in Example 6. Mice were challenged with saline (untreated) or ovalbumin (treatment with vehicle or one of Compounds C-I at a dosage indicated in Table 6 in ug/kg).

In assay [1] the test system is rats with CYP-induced cystitis. Kind of assay: Cystometry in conscious rats with cyclophosphamide (CYP) induced chronic IC, Compound A. Format: in vivo, rat. Also on record: Bl. Cap. / FP / TP / MP / amplitude of NVBC: unit not given here. Particulars: Compound A oral 0.1 μg/kg daily for 14 days. An excerpt: The rat model of chemical cystitis induced by intraperitoneal injection of CYP has been Well accepted. CYP is used in clinical practice in the treatment of a number of malignant tumors. One of its metabolites, acrolein, is excreted in urine in large concentrations causing hemorrhagic cystitis associated with symptoms of urinary frequency, urgency and pelvic pain. The inflammatory process is characterized by changes in gross histology of bladder, increase in number and distribution of inflammatory cell infiltrates (mast cells, macrophage, PMNs), cyclo-oxygenase-2 expression and prostaglandin production, growth factor and cytokine production. The rat model of chemical cystitis closely resembles interstitial cystitis, a chronic, painful urinary bladder syndrome and has been used for the testing of therapeutic agents in the past.
This model was used to test the effects of oral administration of 1,25-dihydroxyvitamin D3 analogue in rats with CYP-induced cystitis. The effects of the treatment on the cystometric parameters in a conscious freely moving rat with CYP-induced cystitis were monitored. The following cystometric parameters were recorded in each animal: • bladder capacity • filling pressure (pressure at the beginning of the bladder filling) • threshold pressure (bladder pressure immediately prior to micturition) • micturition pressure (the maximal bladder pressure during micturition) • presence or absence of non-voiding bladder contractions (increases in bladder pressure of at least 10 cm H2O without release of urine) • amplitude of non-voiding bladder contraction.
Animals: Wistar female rats, age 8 weeks, weighing 125-175 g were used. […] Following recovery all animals received three intraperitoneal injections of CYP and subsequently were divided into the treatment and sham control groups.
Treatment group: Rats treated with oral 1,25-dihydroxyvitamin D3 analog (1,3-Di-O-acetyl-1,25-dihydroxy-16,23Z-diene-26,27-hexafluoro-19-nor-cholecalciferol) “Compound A” for 14 days (daily dose of 0.1 μg/kg)
Cystometry was performed 24 hours following the last dose of the drug or vehicle on awake freely moving animals.
A lower midline abdominal incision was performed under general inhalation anesthesia (isoflurine with O2) and polyethylene tubing (PE-50, Clay Adams, Parsippany, N.J.) with the end flared by heat was inserted into the dome of the bladder and secured in place with a 6-0 prolene purse string suture. The distal end of the tubing was heat-sealed, tunneled subcutaneously and externalized at the back of the neck, out of the animal's reach. Abdominal and neck incisions were closed with 4-0 nylon sutures.
Following recovery (5 days) subject animals underwent three intraperitoneal injections of CYP (Sigma Chemical, St. Luis, Mo.; 75 mg/kg each, intraperitoneal) over the period of nine days. On the tenth day following the first CYP injection the sham control animals received the vehicle only, whereas the experimental group were treated with the 1,25-dihydroxyvitamin D3 analogue 1,3-Di-O-acetyl-1,25-dihydroxy-16,23Z-diene-26,27-hexafluoro-19-nor-cholecalciferol “Compound A” (delivered orally using gavage). Two weeks following the initiation of the treatment animals underwent a conscious cystometrogram to assess the function of the urinary bladder.
An animal was placed unrestrained in a cage and the catheter was connected via a T-tube to a pressure transducer (Grass® Model PT300, West Warwick, R.I.) and microinjection pump (Harvard Apparatus 22, South Natick, Mass.). A 0.9% saline solution was infused at room temperature into the bladder at a rate of 10 ml/hour. […]. At least three reproducible micturition cycles were recorded after the initial stabilization period of 25-30 minutes.

Where “and” joins values, the source holds several entries; their conditions need not be identical. Identical values can stand only once.

On to `C=C1/C(=C\C=C2/CCC[C@]3(C)C([C@@H](C)C/C=C/C(O)(CC)CC)=CC[C@@H]23)C[C@@H](O)C[C@@H]1F` [Compound B, 1-alpha-fluoro-25-hydroxy-16,23E-diene-26,27-bishomo-20-epi-cholecalciferol], for which the “expression of inflammatory marker FcεR1α” value with FcεR1α (75 ug/kg oral, individual animals) is recorded as “down-modulates”; in the assay on FcεR1α (30 and 75 ug/kg oral, dose dependent, pooled samples), “significantly reduces”.
Take `CC(=O)OC1C/C(=C/C=C2\CCC[C@]3(C)C(C(C)C/C=C\C(O)(C(F)(F)F)C(F)(F)F)=CCC23)C[C@@H](OC(C)=O)C1` (some centres unmarked) [Compound A, 1,3-Di-O-acetyl-1,25-dihydroxy-16,23Z-diene-26,27-hexafluoro-19-nor-cholecalciferol]: in assay [1] (CYP cystitis, individual rats RB7, RB13, RB15, three micturition cycles each), the “Bl. Cap.” value was 1.9 and 1.3 (2×) and 2.5 and 1.5 and 0.7 (2×) and 0.8 and 1.4. For the same molecule, in assay [1] (individual rats, three micturition cycles each), the “amplitude of NVBC” value was 10 and 11 (2×) and 0 (6×). The FP in assay [1] (filling pressure, individual rats, three micturition cycles each) was 15 and 14 (3×) and 12 and 11 and 10 and 13 (2×). Further, the MP in assay [1] (micturition pressure, individual rats, three micturition cycles each) is 105 and 97 (2×) and 90 and 100 and 108 and 98 and 101 and 104. In assay [1] (non-voiding bladder contractions, individual rats, three micturition cycles each), the “# of NVBC” value is 4 and 8 (2×) and 0 (6×). The TP in assay [1] (threshold pressure, individual rats, three micturition cycles each) is 16 and 17 and 14 (4×) and 12 and 11 and 15.
